Source: the supplement of paper PMC10733146

Key:
Test in all cases: viability relative to DMSO control (fraction); higher = less drug effect (more viable cells)
Details in all cases: 48 h
[1] = system: primary MCL patient cells (S053)
Summary of the method: (§1)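 The cells were primary mononuclear tumour cells, either fresh or cryopreserved, isolated by Ficoll from blood or bone marrow or derived from processed lymph node. Each well of a 384-well plate received 4 × 10^4 cells onto compounds pre-plated at five concentrations, with one well per concentration. The medium was RPMI-1640 with penicillin/streptomycin, L-glutamine and human serum, and plates stood at 37 °C and 5% CO2 for 48 h. Viability is reported as CellTiter-Glo luminescence relative to the median of 16 inner DMSO wells.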

[2] = system: primary DLBCL patient cells (S082)
Summary of the method: as §1

[3] = system: primary T-PLL patient cells (S008)
Summary of the method: as §1

[4] = system: primary AML patient cells (S009)
Summary of the method: as §1

[5] = system: primary BL patient cells (S005)
Summary of the method: as §1

[6] = system: primary AML patient cells (S060)
Summary of the method: as §1

[7] = system: primary FL patient cells (S087)
Summary of the method: as §1

[8] = system: primary MCL patient cells (S068)
Summary of the method: as §1

[9] = system: primary ALL patient cells (S088)
Summary of the method: as §1

[10] = system: primary AML patient cells (S079)
Summary of the method: as §1

[11] = system: primary MCL patient cells (S063)
Summary of the method: as §1

[12] = system: primary FL patient cells (S022)
Summary of the method: as §1

[13] = system: primary B-PLL patient cells (S016)
Summary of the method: as §1

[14] = system: primary ALL patient cells (S048)
Summary of the method: as §1

[15] = system: primary CLL patient cells (S031)
Summary of the method: as §1

[16] = system: primary MCL patient cells (S041)
Summary of the method: as §1

[17] = system: primary AML patient cells (S072)
Summary of the method: as §1

[18] = system: primary AML patient cells (S071)
Summary of the method: as §1

[19] = system: primary AML patient cells (S056)
Summary of the method: as §1

Cc1cc(Nc2ncc(Cl)c(Nc3ccccc3S(=O)(=O)C(C)C)n2)c(OC(C)C)cc1C1CCNCC1 [Ceritinib]
viability ([1]; 0.024 µM): 0.986
viability ([1]; 0.12 µM): 1.01
viability ([1]; 0.6 µM): 1
viability ([1]; 3 µM): 0.832
viability ([1]; 15 µM): 0.0213
viability ([2]; 0.024 µM): 1.05
viability ([2]; 0.12 µM): 1.04
viability ([2]; 0.6 µM): 0.617
viability ([2]; 3 µM): 0.321
viability ([2]; 15 µM): 0.0186
viability ([3]; 0.024 µM): 0.991
viability ([3]; 0.12 µM): 1.04
viability ([3]; 0.6 µM): 0.939
viability ([3]; 3 µM): 0.86
viability ([3]; 15 µM): 0.0194
viability ([4]; 0.024 µM): 0.937
viability ([4]; 0.12 µM): 0.903
viability ([4]; 0.6 µM): 0.823
viability ([4]; 3 µM): 0.754
viability ([4]; 15 µM): 0.0293
viability ([5]; 0.024 µM): 1.05
viability ([5]; 0.12 µM): 0.992
viability ([5]; 0.6 µM): 0.944
viability ([5]; 3 µM): 0.669
viability ([5]; 15 µM): 0.0199
viability ([6]; 0.024 µM): 1
viability ([6]; 0.12 µM): 0.981
viability ([6]; 0.6 µM): 1.03
viability ([6]; 3 µM): 0.947
viability ([6]; 15 µM): 0.0203
viability ([7]; 0.024 µM): 0.968
viability ([7]; 0.12 µM): 0.981
viability ([7]; 0.6 µM): 0.883
viability ([7]; 3 µM): 0.734
viability ([7]; 15 µM): 0.0188
viability ([8]; 0.024 µM): 0.94
viability ([8]; 0.12 µM): 0.84
viability ([8]; 0.6 µM): 0.88
viability ([8]; 3 µM): 1.02
viability ([8]; 15 µM): 0.0227
viability ([9]; 0.024 µM): 0.923
viability ([9]; 0.12 µM): 0.788
viability ([9]; 0.6 µM): 0.558
viability ([9]; 3 µM): 0.35
viability ([9]; 15 µM): 0.0155
viability ([10]; 0.024 µM): 0.964
viability ([10]; 0.12 µM): 0.933
viability ([10]; 0.6 µM): 0.844
viability ([10]; 3 µM): 0.738
viability ([10]; 15 µM): 0.0169
viability ([11]; 0.024 µM): 0.967
viability ([11]; 0.12 µM): 0.946
viability ([11]; 0.6 µM): 0.957
viability ([11]; 3 µM): 0.892
viability ([11]; 15 µM): 0.0187
viability ([12]; 0.024 µM): 1.01
viability ([12]; 0.12 µM): 0.948
viability ([12]; 0.6 µM): 0.846
viability ([12]; 3 µM): 0.555
viability ([12]; 15 µM): 0.0165
viability ([13]; 0.024 µM): 0.945
viability ([13]; 0.12 µM): 0.832
viability ([13]; 0.6 µM): 0.743
viability ([13]; 3 µM): 0.555
viability ([13]; 15 µM): 0.0198
viability ([14]; 0.024 µM): 0.855
viability ([14]; 0.12 µM): 0.83
viability ([14]; 0.6 µM): 0.634
viability ([14]; 3 µM): 0.505
viability ([14]; 15 µM): 0.0153
viability ([15]; 0.024 µM): 1
viability ([15]; 0.12 µM): 0.899
viability ([15]; 0.6 µM): 0.838
viability ([15]; 3 µM): 0.628
viability ([15]; 15 µM): 0.018
viability ([16]; 0.024 µM): 0.966
viability ([16]; 0.12 µM): 0.966
viability ([16]; 0.6 µM): 0.9
viability ([16]; 3 µM): 0.654
viability ([16]; 15 µM): 0.0173
viability ([17]; 0.024 µM): 0.954
viability ([17]; 0.12 µM): 0.939
viability ([17]; 0.6 µM): 0.79
viability ([17]; 3 µM): 0.582
viability ([17]; 15 µM): 0.0168
viability ([18]; 0.024 µM): 0.865
viability ([18]; 0.12 µM): 0.781
viability ([18]; 0.6 µM): 0.476
viability ([18]; 3 µM): 0.174
viability ([18]; 15 µM): 0.0165
viability ([19]; 0.024 µM): 0.954
viability ([19]; 0.12 µM): 1.41
viability ([19]; 0.6 µM): 0.654
viability ([19]; 3 µM): 0.375
viability ([19]; 15 µM): 0.0154
